This note sets out measurements from paper PMC7613998, “Development of selective inhibitors of phosphatidylinositol 3-kinase C2α” (Nature Chemical Biology, 2022).

Common to all, as to assay: biochemical
Common to all, as to design: SelectScreen Adapta purified lipid kinase panel, 1 uM compound, 10 uM ATP, per cent inhibition
Holding throughout (conditions): ATP=10; Technology=Adapta; 10 uM ATP

In test [1] the target is PI4KA (PI4K alpha) (Homo sapiens, UniProt P42356). Here is the method: (§1) As PI3KC2α is related to other PI3Ks and to PI3K-like protein kinases such as mTOR, the selectivity of PITCOINs was determined in a panel of biochemical assays. […] Finally, the high specificity of PITCOINs for PI3KC2α was verified by Kinobead profiling experiments. In this approach, the ability of PITCOINs to compete the affinity capture of cellular kinases on immobilized nonselective kinase inhibitors (Kinobeads) is analyzed by mass spectrometry (MS)[31]. […] Four nonkinase weak off-targets were globally found for the three inhibitors with only FECH[32] common to the three PITCOINs (Supplementary Dataset).  Extended Data Fig. 2 Lipid kinase inhibitor profile of PITCOIN1-3. (a–c) Selectivity profiling of PITCOIN1-3 (1 µM) with purified lipid kinases in the presence of 10 µM ATP. […] Data are presented as mean ± SD from two independent experiments. (d, e) IC50 measurements of PITCOIN1-3 against purified recombinant class I PI3K p110α/p85α (d) or purified class III PI3K VPS34 complex II (e). 10 µM ATP and 20 µM PIP3 (for p110α/p85α) or 200 µM PI (for VPS34 complex II) were used as substrates. […] Data are presented as mean ± SD from two independent experiments. Source data

Test [2] concerns the target PIK3CA E542K/PIK3R1 (p110 alpha E542K/p85 alpha) (Homo sapiens, UniProt P42336, E542K). Here is the method:
as §1

Test [3] concerns the target PIK3CA E545K/PIK3R1 (p110 alpha E545K/p85 alpha) (Homo sapiens, UniProt P42336, E545K). How it is done: as §1
The target of test [4] is PIK3CA/PIK3R1 (p110 alpha/p85 alpha) (Homo sapiens, UniProt P42336). How it is done:
as §1

Test [5] addresses PIK3CB/PIK3R2 (p110 beta/p85 beta) (Homo sapiens, UniProt P42338). Here is the method:
as §1

In test [6] the target is PIP5K1C (Homo sapiens, UniProt O60331). How it is done:
as §1

Test [7] concerns the target SPHK1 (Homo sapiens, UniProt Q9NYA1). How it is done: as §1
Test [8] deals with T1, SPHK2 (Homo sapiens, UniProt Q9NRA0).
T1 sequence (Q9NRA0 1-654): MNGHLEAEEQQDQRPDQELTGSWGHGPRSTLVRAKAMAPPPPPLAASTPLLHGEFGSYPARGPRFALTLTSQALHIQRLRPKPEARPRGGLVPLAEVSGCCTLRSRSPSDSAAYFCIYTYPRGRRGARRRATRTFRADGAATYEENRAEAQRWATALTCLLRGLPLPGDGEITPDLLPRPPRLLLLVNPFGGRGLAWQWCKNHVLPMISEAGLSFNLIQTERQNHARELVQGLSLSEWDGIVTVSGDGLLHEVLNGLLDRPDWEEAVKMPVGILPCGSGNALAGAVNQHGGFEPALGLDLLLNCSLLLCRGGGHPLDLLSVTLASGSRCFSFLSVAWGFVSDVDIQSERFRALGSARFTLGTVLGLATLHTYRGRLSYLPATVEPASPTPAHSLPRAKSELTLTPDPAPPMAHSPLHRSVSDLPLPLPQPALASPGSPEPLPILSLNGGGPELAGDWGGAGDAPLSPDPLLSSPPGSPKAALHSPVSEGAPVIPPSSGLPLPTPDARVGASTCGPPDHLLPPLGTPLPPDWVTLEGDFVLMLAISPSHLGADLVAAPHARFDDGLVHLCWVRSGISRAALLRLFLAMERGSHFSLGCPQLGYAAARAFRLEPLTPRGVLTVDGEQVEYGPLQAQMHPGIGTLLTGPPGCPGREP
How it is done: as §1

PIK3CA E542K/PIK3R1 (p110 alpha E542K/p85 alpha), sequence (P42336 whole entry E542K): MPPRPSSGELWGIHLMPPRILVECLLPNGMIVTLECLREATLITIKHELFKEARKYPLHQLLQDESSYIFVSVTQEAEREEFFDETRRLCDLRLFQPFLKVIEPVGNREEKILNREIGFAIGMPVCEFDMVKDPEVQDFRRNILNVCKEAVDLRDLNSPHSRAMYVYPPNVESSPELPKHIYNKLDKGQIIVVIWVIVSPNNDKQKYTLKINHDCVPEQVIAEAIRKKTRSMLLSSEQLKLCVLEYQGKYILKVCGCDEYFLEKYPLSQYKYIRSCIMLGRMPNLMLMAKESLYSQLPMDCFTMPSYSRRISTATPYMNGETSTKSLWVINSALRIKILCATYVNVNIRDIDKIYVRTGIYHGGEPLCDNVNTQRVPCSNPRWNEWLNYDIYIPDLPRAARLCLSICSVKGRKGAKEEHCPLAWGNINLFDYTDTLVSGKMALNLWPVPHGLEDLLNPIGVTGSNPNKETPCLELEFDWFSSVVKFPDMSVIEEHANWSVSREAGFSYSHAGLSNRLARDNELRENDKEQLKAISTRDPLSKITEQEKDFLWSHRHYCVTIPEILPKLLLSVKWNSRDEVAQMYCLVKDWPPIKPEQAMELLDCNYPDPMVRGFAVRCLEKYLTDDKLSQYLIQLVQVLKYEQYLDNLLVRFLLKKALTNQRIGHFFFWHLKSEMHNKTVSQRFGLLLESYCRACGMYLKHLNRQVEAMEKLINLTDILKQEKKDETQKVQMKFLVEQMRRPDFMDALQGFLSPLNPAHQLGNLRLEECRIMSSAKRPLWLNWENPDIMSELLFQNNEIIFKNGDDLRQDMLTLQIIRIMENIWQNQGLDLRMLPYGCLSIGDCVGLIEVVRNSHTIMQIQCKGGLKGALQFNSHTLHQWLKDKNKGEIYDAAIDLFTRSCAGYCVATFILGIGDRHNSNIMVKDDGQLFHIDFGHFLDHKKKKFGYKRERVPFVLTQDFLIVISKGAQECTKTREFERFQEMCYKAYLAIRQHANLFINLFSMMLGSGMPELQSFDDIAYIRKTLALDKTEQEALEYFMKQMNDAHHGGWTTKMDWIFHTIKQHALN
PIK3CA E542K/PIK3R1 (p110 alpha E542K/p85 alpha), sequence (P27986 whole entry partner): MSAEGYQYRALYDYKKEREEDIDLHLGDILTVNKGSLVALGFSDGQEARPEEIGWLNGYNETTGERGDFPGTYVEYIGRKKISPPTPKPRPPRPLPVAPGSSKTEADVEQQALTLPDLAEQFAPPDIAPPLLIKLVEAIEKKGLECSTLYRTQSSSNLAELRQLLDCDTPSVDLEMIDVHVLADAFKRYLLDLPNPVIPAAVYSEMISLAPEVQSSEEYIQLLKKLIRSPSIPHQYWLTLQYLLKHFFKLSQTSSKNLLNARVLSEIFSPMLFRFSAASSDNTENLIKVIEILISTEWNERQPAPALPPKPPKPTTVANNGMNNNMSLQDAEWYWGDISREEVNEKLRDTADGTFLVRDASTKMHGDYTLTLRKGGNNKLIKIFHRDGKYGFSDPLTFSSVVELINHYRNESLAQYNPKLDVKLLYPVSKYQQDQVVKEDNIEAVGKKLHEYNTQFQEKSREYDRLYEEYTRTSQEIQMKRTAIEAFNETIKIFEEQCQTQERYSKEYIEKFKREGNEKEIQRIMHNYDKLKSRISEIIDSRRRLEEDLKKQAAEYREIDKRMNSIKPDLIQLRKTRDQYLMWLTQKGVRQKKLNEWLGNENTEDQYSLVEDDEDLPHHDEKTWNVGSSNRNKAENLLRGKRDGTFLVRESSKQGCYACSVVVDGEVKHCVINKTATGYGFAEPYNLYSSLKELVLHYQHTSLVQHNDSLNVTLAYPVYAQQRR
PIK3CA E545K/PIK3R1 (p110 alpha E545K/p85 alpha), sequence (P42336 whole entry E545K): as the sequence (P42336 whole entry E542K) above, with K542E, E545K counted along it
PIK3CA E545K/PIK3R1 (p110 alpha E545K/p85 alpha), sequence (P27986 whole entry partner): as the sequence (P27986 whole entry partner) above
PIK3CB/PIK3R2 (p110 beta/p85 beta), sequence (P42338 whole entry): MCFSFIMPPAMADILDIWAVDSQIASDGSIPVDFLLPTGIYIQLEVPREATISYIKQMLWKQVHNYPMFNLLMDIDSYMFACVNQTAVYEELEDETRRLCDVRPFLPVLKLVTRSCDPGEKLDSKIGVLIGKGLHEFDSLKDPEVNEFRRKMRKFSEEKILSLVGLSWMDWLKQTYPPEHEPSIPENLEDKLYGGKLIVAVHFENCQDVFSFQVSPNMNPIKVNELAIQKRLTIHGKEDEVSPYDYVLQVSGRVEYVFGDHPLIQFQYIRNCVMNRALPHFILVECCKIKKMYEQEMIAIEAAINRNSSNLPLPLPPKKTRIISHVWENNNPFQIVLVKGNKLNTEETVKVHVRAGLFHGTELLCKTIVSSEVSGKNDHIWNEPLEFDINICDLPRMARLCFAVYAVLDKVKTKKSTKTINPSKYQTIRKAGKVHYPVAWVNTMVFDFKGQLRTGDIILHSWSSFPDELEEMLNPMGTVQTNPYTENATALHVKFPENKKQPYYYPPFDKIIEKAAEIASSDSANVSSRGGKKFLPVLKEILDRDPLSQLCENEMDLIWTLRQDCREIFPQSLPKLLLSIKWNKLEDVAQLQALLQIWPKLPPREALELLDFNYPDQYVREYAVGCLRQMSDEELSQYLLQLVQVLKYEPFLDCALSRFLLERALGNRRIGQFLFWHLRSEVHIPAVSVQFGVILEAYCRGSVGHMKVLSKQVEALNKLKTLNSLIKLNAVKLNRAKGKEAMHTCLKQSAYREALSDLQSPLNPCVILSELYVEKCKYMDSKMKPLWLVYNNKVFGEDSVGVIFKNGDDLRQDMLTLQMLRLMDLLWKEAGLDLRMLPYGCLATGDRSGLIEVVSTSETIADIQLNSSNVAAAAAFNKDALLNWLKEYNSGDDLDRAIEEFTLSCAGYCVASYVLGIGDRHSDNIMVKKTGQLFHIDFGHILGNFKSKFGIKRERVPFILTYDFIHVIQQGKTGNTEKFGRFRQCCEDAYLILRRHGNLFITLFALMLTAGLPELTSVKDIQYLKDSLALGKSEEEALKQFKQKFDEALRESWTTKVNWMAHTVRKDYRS
PIK3CB/PIK3R2 (p110 beta/p85 beta), sequence (O00459 whole entry partner): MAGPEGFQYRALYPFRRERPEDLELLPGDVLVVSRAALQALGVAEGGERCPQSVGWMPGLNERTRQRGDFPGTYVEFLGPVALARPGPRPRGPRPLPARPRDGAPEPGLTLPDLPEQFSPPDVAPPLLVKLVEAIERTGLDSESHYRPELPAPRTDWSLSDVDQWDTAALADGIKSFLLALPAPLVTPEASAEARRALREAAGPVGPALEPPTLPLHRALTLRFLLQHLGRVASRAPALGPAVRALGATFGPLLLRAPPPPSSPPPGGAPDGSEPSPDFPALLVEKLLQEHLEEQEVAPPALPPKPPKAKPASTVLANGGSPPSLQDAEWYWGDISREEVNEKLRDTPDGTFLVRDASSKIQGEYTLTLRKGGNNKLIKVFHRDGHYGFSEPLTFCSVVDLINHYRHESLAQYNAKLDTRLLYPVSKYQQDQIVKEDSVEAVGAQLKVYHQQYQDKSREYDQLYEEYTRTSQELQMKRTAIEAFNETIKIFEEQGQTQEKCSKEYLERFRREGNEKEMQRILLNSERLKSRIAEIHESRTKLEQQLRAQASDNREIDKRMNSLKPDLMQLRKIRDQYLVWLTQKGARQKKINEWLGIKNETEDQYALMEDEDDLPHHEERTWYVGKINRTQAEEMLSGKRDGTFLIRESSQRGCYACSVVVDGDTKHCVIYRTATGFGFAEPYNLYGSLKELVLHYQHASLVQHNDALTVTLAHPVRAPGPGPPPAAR
PIK3CA/PIK3R1 (p110 alpha/p85 alpha), sequence (P42336 whole entry): as the sequence (P42336 whole entry E542K) above, with K542E counted along it
PIK3CA/PIK3R1 (p110 alpha/p85 alpha), sequence (P27986 whole entry partner): as the sequence (P27986 whole entry partner) above
SPHK1, sequence (Q9NYA1 whole entry): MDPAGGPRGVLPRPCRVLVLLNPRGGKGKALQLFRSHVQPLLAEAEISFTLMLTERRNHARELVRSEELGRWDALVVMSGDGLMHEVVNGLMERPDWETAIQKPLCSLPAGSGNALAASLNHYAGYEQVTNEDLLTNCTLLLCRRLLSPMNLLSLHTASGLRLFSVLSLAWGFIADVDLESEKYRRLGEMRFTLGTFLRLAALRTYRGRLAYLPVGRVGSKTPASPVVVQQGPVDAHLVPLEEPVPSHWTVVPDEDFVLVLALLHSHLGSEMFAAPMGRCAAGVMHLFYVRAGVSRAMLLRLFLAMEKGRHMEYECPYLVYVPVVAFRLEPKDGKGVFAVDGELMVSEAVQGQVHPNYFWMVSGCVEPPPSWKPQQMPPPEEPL
PIP5K1C, sequence (O60331 whole entry): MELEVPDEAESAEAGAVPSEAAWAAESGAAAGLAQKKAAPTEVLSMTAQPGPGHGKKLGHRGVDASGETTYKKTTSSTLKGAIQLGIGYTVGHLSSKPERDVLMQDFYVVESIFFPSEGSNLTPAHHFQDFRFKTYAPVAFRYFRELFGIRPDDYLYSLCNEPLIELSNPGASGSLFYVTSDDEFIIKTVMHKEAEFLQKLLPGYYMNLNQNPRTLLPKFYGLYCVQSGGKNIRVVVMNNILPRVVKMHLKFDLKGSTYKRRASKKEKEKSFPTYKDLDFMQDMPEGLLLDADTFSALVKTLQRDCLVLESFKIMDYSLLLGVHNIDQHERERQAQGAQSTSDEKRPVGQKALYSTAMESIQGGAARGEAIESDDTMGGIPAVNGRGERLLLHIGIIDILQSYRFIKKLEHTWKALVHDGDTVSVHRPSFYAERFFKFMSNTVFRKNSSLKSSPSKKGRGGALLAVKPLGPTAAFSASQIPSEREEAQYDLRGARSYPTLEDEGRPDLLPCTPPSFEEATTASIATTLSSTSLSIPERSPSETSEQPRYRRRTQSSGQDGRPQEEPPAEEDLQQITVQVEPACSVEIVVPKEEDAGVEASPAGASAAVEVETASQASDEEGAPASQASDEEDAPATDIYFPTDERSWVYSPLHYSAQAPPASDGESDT

Turning to `O=C(CSc1nc2nccnc2c(=O)n1CCc1ccccc1)Nc1nccs1` [compound 1, PITCOIN1], the inhibition at 1 µM in test [1] was 1%; in test [2], 5%; in test [3] it was 2%; in test [4] it was 5%; in test [5] it was 3%; in test [6], 15%. For the same compound, the inhibition at 1 µM in test [7] is -1%; in test [8] it was 9%.

Regarding `O=C(CSc1nc2nccnc2c(=O)n1CCc1ccccc1)Nc1nc(-c2cccc(O)c2)cs1` [compound 2, PITCOIN2], the inhibition at 1 µM was -9% in test [1]; 9% in test [2]; 0% in test [3]; -1% in test [4]; -2% in test [5]; -8% in test [6]. In addition, the results for the inhibition at 1 µM in test [7] and in test [8] were -6% and -1%, respectively.

Take `CS(=O)(=O)Nc1cccc(-c2csc(NC(=O)CSc3nc4nccnc4c(=O)n3CCc3ccccc3)n2)c1` [compound 3, PITCOIN3]: the inhibition at 1 µM in test [1] is 5%; in test [2], 14%; in test [3], 4%; in test [4], 17%; in test [5] it was 7%; in test [6], -4%. Also, the inhibition at 1 µM is -1% in test [7] and -5% in test [8].
